Experimental data reported in patent US11787764B2, “Heptamethine cyanines for use as fluorescent markers of the biliary and renal systems” (CHILDREN'S NATIONAL MEDICAL CENTER, priority 2018, dated 2023).

Experiments:
Sprague-Dawley rats = details: rat, in vivo, iv, 90 ug/kg
[1] = Quantum yield measurement
Procedure: Fluorescence traces were recorded on a PTI QuantaMaster steady-state spectrofluorimeter operated by FelixGX 4.2.2 software, with 5 nm excitation and emission slit widths, 0.1 s integration rate, and enabled emission correction.

Row | excretion into bile / biliary clearance (in words) (Sprague-Dawley rats) | quantum yield [1] [%] | Structure (SMILES)
1 | excellent biliary clearance |  | CN(CCOC1=C(/C=C/C2=[N+](CCCCS(=O)(=O)[O-])c3ccccc3C2(C)C)CCC/C1=C\C=C1\N(CCCCS(=O)(=O)O)c2ccccc2C1(C)C)C(=O)CCCC(=O)O [FNIR-Ar-H_N-BS]
2 |  | 9 | CC1(C)C(/C=C/C=C/C=C/C=C2\N(CCCCS(=O)(=O)O)c3ccc4ccccc4c3C2(C)C)=[N+](CCCCS(=O)(=O)[O-])c2ccc3ccccc3c21 [ICG, indocyanine green]
3 | excretes rapidly into bile |  | CC1(C)C(=CC=C2CCCC(C=CC3=[N+](CCCCCC(=O)[O-])c4ccc(S(=O)(=O)[O-])cc4C3(C)C)=C2Oc2ccc(S(=O)(=O)[O-])cc2)N(CCCCS(=O)(=O)[O-])c2ccc(S(=O)(=O)[O-])cc21.[Na+].[Na+].[Na+].[Na+] [IRDye® 800CW]
